# From patent publication US20100022509A1, “Inhibitors of MshC and Homologs Thereof, and Methods of Identifying Same” (priority 2006, published 2010)
# How the values were obtained:
# Format in all cases: cell-based
# M. smegmatis mc^2155 = experiment: Inhibitor studies with Mycobacterium smegmatis: growth
# Protocol: (§1) Inhibitor studies with Mycobaterium smagmatis. An exponential culture of M. smegmatis mc^2155 in Middlebrook 7H9 medium containing 0.05% Tween 80 and 1% glucose was used to inoculate a culture in the same medium but with 0.4% glucose to A600=0.05. The inhibitor NTF1836 was added from a stock solution in Me2SO at 0, 10, 20, 30 and 40 μM to duplicate 40 ml aliquots of the culture in 125 ml flasks to produce a final Me2SO content of ≦0.04%. The cells were incubated at 37° C. and 250 rpm. At A600˜0.25 and subsequent doublings in cell density, a volume of culture was removed sufficient to provide analysis of GlcN-Ins and MSH as described above.
# [1] = system: MshC within M. tuberculosis; experiment: Mycothiol and GlcN-Ins content of M. tuberculosis, day 7
# [2] = system: Mycobacterium smegmatis mc^2155 ATCC 700084; experiment: MIC by broth dilution assay
# [3] = system: mycothiol biosynthesis in M. smegmatis mc^2155; experiment: Inhibitor studies with Mycobacterium smegmatis: GlcN-Ins and MSH content by HPLC; conditions: 30 μM, after 12 h
# Protocol: as §1
# Staphylococcus aureus = experiment: MIC by broth dilution assay; conditions: for MIC: n = 3
# [4] = system: Enterococcus faecalis ATCC 29212; experiment: MIC by broth dilution assay
# M. tuberculosis = experiment: Growth of M. tuberculosis in broth culture, 7 days (optical density, plate counts); conditions: for OD600: day 7, starting OD600 0.08
# M. smegmatis = experiment: Growth of M. smegmatis parent and MSH mutant strains in the presence of INH
# Protocol: Using the parental strain mc^2155, the Myco504 mutant in mshB that produces 5-10% of normal MSH in exponential growth, and the mutant strain 49 that produces 0% of normal MSH, the effect of 0-30 μg per ml INH upon growth was examined. […] This is seen in FIG. 13 for growth in the presence of 10 μg per ml INH.
smiles,measurement,setting,value
CN(CCCNC(=O)c1ccc2c(c1)N(Cc1cccc(Cl)c1)C(=O)c1ccccc1[S+]2[O-])C1CCCCC1 (centres unmarked) [NTF1836],growth rate,M. smegmatis mc^2155; 30 μM,half the normal rate
same,growth,"M. smegmatis mc^2155; 40 μM, after 8 h",completely inhibited
same,GlcN-Ins,[1]; 20 uM,2.77 ± 0.09 nmoles/10^9 bacteria
same,GlcN-Ins/mycothiol,[1]; 20 uM,0.09
same,mycothiol,[1]; 20 uM,27.8 ± 2.5 nmoles/10^9 bacteria
same,GlcN-Ins,[1]; 30 uM,3.49 ± 0.10 nmoles/10^9 bacteria
same,GlcN-Ins/mycothiol,[1]; 30 uM,0.18
same,mycothiol,[1]; 30 uM,19.1 ± 2.5 nmoles/10^9 bacteria
same,GlcN-Ins,[1]; 50 uM,4.28 nmoles/10^9 bacteria
same,GlcN-Ins/mycothiol,[1]; 50 uM,0.428
same,mycothiol,[1]; 50 uM,10.0 nmoles/10^9 bacteria
same,GlcN-Ins,[1]; 75 uM,4.22 nmoles/10^9 bacteria
same,GlcN-Ins/mycothiol,[1]; 75 uM,1.21
same,mycothiol,[1]; 75 uM,3.5 nmoles/10^9 bacteria
same,"growth inhibition, in words",[2]; M. smegmatis,inhibitory
same,MIC,"[2]; Mycolicibacterium smegmatis, ATCC700084|MC^2155, Middlebrook 7H9 + 1% glucose, n = 3",16 µg/mL
same,GlcN-Ins content,[3],twice the normal level
same,MIC,"Staphylococcus aureus; ATCC25923, Staphylococcus aureus ATCC 25923, TSB",128 µg/mL
same,"growth inhibition, in words",Staphylococcus aureus; Staphylococcus aureus,inhibitory
same,MIC,"Staphylococcus aureus; Staphylococcus aureus RN450, TSB",64 µg/mL
same,"growth inhibition, in words",[4],inhibitory
same,MIC,"[4]; ATCC29212, Todd Hewitt, n = 3",64 µg/mL
same,OD600,M. tuberculosis; 20 uM,1.304 ± 0.014
same,OD600,M. tuberculosis; 30 uM,0.600 ± 0.049
same,OD600,M. tuberculosis; 50 uM,0.271
same,OD600,M. tuberculosis; 75 uM,0.12
same,IC50,"M. tuberculosis; Mycobacterium tuberculosis, 168 h, 7 days, by optical density and by plate counts of viable bacteria, read-out: IC50 for growth inhibition of M. tuberculosis",20 to 30 µM
"NNC(=O)c1ccncc1 [INH, isoniazid]",growth of strain 49 (0% MSH),M. smegmatis; 2 μg per ml INH and above,no effect
same,growth of strain mc^2155,M. smegmatis; 2 μg per ml INH and above,became inhibited
same,growth of strain 49 (0% MSH),M. smegmatis; 10 μg per ml INH,grows at the same rate as in the absence of INH
same,growth of strain Myco504 (5-10% MSH),M. smegmatis; 10 μg per ml INH,markedly inhibited
same,growth of strain mc^2155,M. smegmatis; 10 μg per ml INH,markedly inhibited
